Laboratory results taken from patent US20250296953A1, “3,4-THIAZOLO-STEROIDS AND METHODS OF MAKING AND USING THE SAME” (Arkansas State University - Jonesboro, priority 2018, published 2025).
Read-outs that look alike come from different tables or passages of the source.

Columns and labels:
[1] = system: 60 different human tumor cell lines; assay: cells
glioblastoma (SF-295) = assay: NCI 60 five dose screen
NCI-H522 (NSCLC) = assay: NCI 60 one dose screen; format: cell-based, human; conditions: Non-small Cell Lung Cancer
RPMI-8226 = assay: NCI 60 five dose screen

C[C@]12CC[C@H]3[C@@H](CC=C4c5sc(Nc6ccccc6)nc5CC[C@@]43C)[C@@H]1CC[C@@H]2O [IIIa.10, (1S,2R,13R,14S,17S,18S)-7-anilino-2,18-dimethyl-8-thia-6-azapentacyclo[11.7.0.02,10.05,9.014,18]icosa-5(9),6,10-trien-17-ol]
GI50 ([1]; 60 cell): 2.37 µM | CC50 ([1]; 60 cell, read-out: LC50): 38.4 µM | GI50 ([1]; 786-0): 1.22 µM | CC50 ([1]; 786-0, read-out: LC50): 8.87 µM | GI50 ([1]; A498): 2.16 µM | CC50 ([1]; A498, read-out: LC50): 20.7 µM | GI50 ([1]; A549): 2.41 µM | CC50 ([1]; A549, read-out: LC50): 46.2 µM | GI50 ([1]; ACHN): 1.71 µM | CC50 ([1]; ACHN, read-out: LC50): 6.19 µM | GI50 ([1]; BT-549): 1.38 µM | CC50 ([1]; BT-549, read-out: LC50): 32.6 µM | GI50 ([1]; CAKI-1): 2.32 µM | CC50 ([1]; CAKI-1, read-out: LC50): 19.2 µM | GI50 ([1]; CCRF-CEM): 1.6 µM | CC50 ([1]; CCRF-CEM, read-out: LC50): > 100 µM | GI50 ([1]; COLO 205): 2.45 µM | CC50 ([1]; COLO 205, read-out: LC50): 50.8 µM | GI50 ([1]; DU-145): 1.7 µM | CC50 ([1]; DU-145, read-out: LC50): 7.68 µM | GI50 ([1]; EKVX): 2.75 µM | CC50 ([1]; EKVX, read-out: LC50): 63.8 µM | GI50 ([1]; HCC 2998): 1.97 µM | CC50 ([1]; HCC 2998, read-out: LC50): 6.42 µM | GI50 ([1]; HCT-15): 1.6 µM | CC50 ([1]; HCT-15, read-out: LC50): 30.6 µM | GI50 ([1]; HCT-116): 1.51 µM | CC50 ([1]; HCT-116, read-out: LC50): 6.01 µM | GI50 ([1]; HL-60): 2.02 µM | CC50 ([1]; HL-60, read-out: LC50): > 100 µM | GI50 ([1]; HOP-62): 2.47 µM | CC50 ([1]; HOP-62, read-out: LC50): > 100 µM | GI50 ([1]; HOP-92): 2.84 µM | CC50 ([1]; HOP-92, read-out: LC50): 27.4 µM | GI50 ([1]; HT-29): 2.13 µM | GI50 ([1]; Hs-578T): 2.16 µM | CC50 ([1]; Hs-578T, read-out: LC50): > 100 µM | GI50 ([1]; IGROV-1): 2.78 µM | CC50 ([1]; IGROV-1, read-out: LC50): > 100 µM | GI50 ([1]; K562): 2.45 µM | CC50 ([1]; K562, read-out: LC50): > 100 µM | GI50 ([1]; KM12): 1.68 µM | CC50 ([1]; KM12, read-out: LC50): 5.77 µM | GI50 ([1]; LOX IMVI): 1.33 µM | CC50 ([1]; LOX IMVI, read-out: LC50): 5.78 µM | GI50 ([1]; M14): 1.84 µM | CC50 ([1]; M14, read-out: LC50): 9.9 µM | GI50 ([1]; MCF7): 1.8 µM | CC50 ([1]; MCF7, read-out: LC50): > 100 µM | GI50 ([1]; MDA-MB-231): 1.99 µM | CC50 ([1]; MDA-MB-231, read-out: LC50): 12.8 µM | GI50 ([1]; MDA-MB-435): 2.25 µM | CC50 ([1]; MDA-MB-435, read-out: LC50): 29.7 µM | GI50 ([1]; MDA-MB-468): 1.72 µM | CC50 ([1]; MDA-MB-468, read-out: LC50): 6.66 µM | GI50 ([1]; MOLT-4): 1.87 µM | CC50 ([1]; MOLT-4, read-out: LC50): > 100 µM | GI50 ([1]; Malme-3M): 2.19 µM | CC50 ([1]; Malme-3M, read-out: LC50): 21.9 µM | GI50 ([1]; NCI-H23): 2.03 µM | CC50 ([1]; NCI-H23, read-out: LC50): 23.7 µM | GI50 ([1]; NCI-H226): 2.4 µM | CC50 ([1]; NCI-H226, read-out: LC50): > 100 µM | GI50 ([1]; NCI-H322M): 2.88 µM | CC50 ([1]; NCI-H322M, read-out: LC50): 35.2 µM | GI50 ([1]; NCI-H460): 1.95 µM | CC50 ([1]; NCI-H460, read-out: LC50): 8.37 µM | GI50 ([1]; NCI-H522): 1.9 µM | CC50 ([1]; NCI-H522, read-out: LC50): 14.3 µM | GI50 ([1]; NCI/ADR-RES): 3.39 µM | CC50 ([1]; NCI/ADR-RES, read-out: LC50): > 100 µM | GI50 ([1]; OVCAR-3): 1.28 µM | CC50 ([1]; OVCAR-3, read-out: LC50): 5.37 µM | GI50 ([1]; OVCAR-4): 3.13 µM | CC50 ([1]; OVCAR-4, read-out: LC50): 56.8 µM | GI50 ([1]; OVCAR-5): 2.68 µM | CC50 ([1]; OVCAR-5, read-out: LC50): 34 µM | GI50 ([1]; OVCAR-8): 3.43 µM | CC50 ([1]; OVCAR-8, read-out: LC50): 93.7 µM | GI50 ([1]; RXF 393): 0.798 µM | CC50 ([1]; RXF 393, read-out: LC50): 5.81 µM | GI50 ([1]; SF-268): 1.66 µM | CC50 ([1]; SF-268, read-out: LC50): 6.62 µM | GI50 ([1]; SK-MEL-2): 2.51 µM | CC50 ([1]; SK-MEL-2, read-out: LC50): 22.2 µM | GI50 ([1]; SK-MEL-5): 1.82 µM | CC50 ([1]; SK-MEL-5, read-out: LC50): 6.4 µM | GI50 ([1]; SK-MEL-28): 1.68 µM | CC50 ([1]; SK-MEL-28, read-out: LC50): 9.49 µM | GI50 ([1]; SK-OV-3): 5.16 µM | CC50 ([1]; SK-OV-3, read-out: LC50): 51.2 µM | GI50 ([1]; SN12C): 1.65 µM | CC50 ([1]; SN12C, read-out: LC50): 6.53 µM | GI50 ([1]; SNB-19): 1.86 µM | CC50 ([1]; SNB-19, read-out: LC50): 7.65 µM | GI50 ([1]; SNB-75): 1.49 µM | CC50 ([1]; SNB-75, read-out: LC50): 6.24 µM | GI50 ([1]; SW-620): 2.27 µM | CC50 ([1]; SW-620, read-out: LC50): 23.2 µM | GI50 ([1]; T47D): 2.41 µM | CC50 ([1]; T47D, read-out: LC50): > 100 µM | GI50 ([1]; TK-10): 2.91 µM | CC50 ([1]; TK-10, read-out: LC50): 23 µM | GI50 ([1]; U-251): 1.36 µM | CC50 ([1]; U-251, read-out: LC50): 5.7 µM | GI50 ([1]; UACC-62): 1.83 µM | CC50 ([1]; UACC-62, read-out: LC50): 8.55 µM | GI50 ([1]; UACC-257): 2.54 µM | CC50 ([1]; UACC-257, read-out: LC50): 30.5 µM | GI50 ([1]; UO-31): 1.67 µM | CC50 ([1]; UO-31, read-out: LC50): 5.56 µM | GI50 (glioblastoma (SF-295); Homo sapiens, SF-295): 1.06 µM | CC50 (glioblastoma (SF-295); Homo sapiens, SF-295, read-out: LC50): 8.38 µM | TGI (glioblastoma (SF-295); SF-295 (CNS Cancer), five dose): 2.98E−6 | Growth Percent (NCI-H522 (NSCLC)): 25.77% | GI50 (RPMI-8226; Homo sapiens, RPMI-8226): 0.465 µM | CC50 (RPMI-8226; Homo sapiens, RPMI-8226, read-out: LC50): > 100 µM | TGI (RPMI-8226; RPMI-8226 (Leukemia), five dose): 2.47E−6
